# Measured values taken from patent US20240239811A1, “5-(5-(PIPERIDIN-4-YL)THIENO[3,2-C]PYRAZOL-2-YL]INDAZOLE DERIVATIVES AND RELATED COMPOUNDS AS MODULATORS FOR SPLICING NUCLEIC ACIDS AND FOR THE T” (REMIX THERAPEUTICS INC., priority 2020, published 2024).
# Where a name gives a salt, the structure may show the parent alone.
# Legend:
# Assay type in all cases: cell-based
# SMN2 CJ mRNA = assay: Gene panel canonical junction qPCR assay, SMN2; conditions: Table 6, decrease in CJ mRNA, read-out: SMN2 IC50 (decrease in CJ mRNA levels)
# Experimental: (§1) Compounds described herein were used to modulate RNA transcript abundance in cells. The expression of a target mRNA was measured by detecting the formation of an exon-exon junction in the canonical transcript (CJ). A compound mediated exon-inclusion event was detected by observing an increase in formation of a new junction with an alternative exon (AJ). Real-time qPCR assays were used to detect these splicing switches and interrogate the potency of various compounds towards different target genes. A high-throughput real time quantitative PCR (RT-qPCR) assay was developed to measure these two isoforms of the mRNA (CJ and AJ) for an exemplary gene, HTT, together with a control housekeeping gene, GAPDH or GUSB or PPIA, used for normalization. Briefly, the A673 or K562 cell line was treated with various compounds described herein (e.g., compounds of Formula (I)). After treatment, the levels of the HTT mRNA targets were determined from each sample of cell lysate by cDNA synthesis followed by qPCR.
# (§2) The A673 cell line was cultured in DMEM with 10% FBS. Cells were diluted with full growth media and plated in a 96-well plate (15,000 cells in 100ul media per well). The plate was incubated at 37° C. with 5% CO2 for 24 hours to allow cells to adhere. An 11-point 3-fold serial dilution of the compounds was made in DMSO then diluted in media in an intermediate plate. Compounds were transferred from the intermediate plate to the cell plate with the top dose at a final concentration of 10 uM in the well. Final DMSO concentration was kept at or below 0.25%. The cell plate was returned to the incubator at 37° C. with 5% CO2 for an additional 24 hours.
# (§3) The K562 cell line was cultured in IMDM with 10% FBS. For K562, cells were diluted with full growth media and plated in either a 96-well plate (50,000 cells in 50 uL media per well) or a 384-well plate (8,000-40,000 cells in 45 uL media per well). An 11-point 3-fold serial dilution of the compounds were made in DMSO then diluted in media in an intermediate plate. Compound was transferred from the intermediate plate to the cell plate with the top dose at a final concentration of 10 uM in the well. Final DMSO concentration was kept at or below 0.25%. Final volume was 100 uL for 96-well plate and 50 uL for 384-well plate. The cell plate was then placed in an incubator at 37° C. with 5% CO2 for 24 hours.
# (§4) The data analysis was performed by first determining the ΔCt vs the housekeeper gene. This ΔCt was then normalized against the DMSO control (ΔΔCt) and converted to RQ (relative quantification) using the 2^(−ΔΔCt) equation. The RQ were then converted to a percentage response by arbitrarily setting an assay window of 3.5 ΔCt for HTT-CJ and an assay window of 9 ΔCt for HTT-AJ. […] The percentage response was then fitted to the 4 parametric logistic equation to evaluate the concentration dependence of compound treatment. The increase in AJ mRNA is reported as AC50 (compound concentration having 50% response in AJ increase) while the decrease in CJ mRNA levels is reported as IC50 (compound concentration having 50% response in CJ decrease).
# (§5) Additional studies were carried out for a larger panel of genes using the protocol provided above. The junction between flanking upstream and downstream exons was used to design canonical junction qPCR assays. At least one of the forward primer, reverse primer or the CY5-labeled 5′ nuclease probe (with 3′ quencher such as ZEN/Iowa Black FQ) was designed to overlap with the exon junction to capture the CJ mRNA transcript. BLAST was used to confirm the specificity of the probeset and parameters such as melting temperature, GC content, amplicon size, and primer dimer formation are considered during their design. Data for the decrease in CJ mRNA levels for three exemplary genes (HTT, SMN2, and Target C) analyzed in this panel are reported as IC50 (compound concentration having […] in CJ decrease).
# HTT CJ mRNA = assay: Gene panel canonical junction qPCR assay, HTT; conditions: Table 6, decrease in CJ mRNA, read-out: HTT IC50 (decrease in CJ mRNA levels)
# Experimental: as §1, §2, §3, §4, §5
# Target C CJ mRNA = assay: Gene panel canonical junction qPCR assay, Target C; conditions: Table 6, decrease in CJ mRNA, read-out: Target C IC50 (decrease in CJ mRNA levels)
# Experimental: as §1, §2, §3, §4, §5
# HTT mRNA = assay: Splicing assay (RT-qPCR) monitoring HTT splice variants, canonical (CJ) and alternative (AJ) junction; conditions: 50% response, A673 or K562 cell line, 24 hours; for IC50: decrease in CJ mRNA; for AC50: increase in AJ mRNA
# Experimental: as §1
# • Cells-to-CT 1-step kit: ThermoFisher A25602, Cells-to-CT lysis reagent: ThermoFisher 4391851C, TaqMan™ Fast Virus 1-Step Master Mix: ThermoFisher 4444436 • GAPDH: VIC-PL, ThermoFisher 4326317E (Assay: Hs99999905_ml)—used for K562/suspension cell lines • GUSB: VIC-PL, ThermoFisher 4326320E (Assay: Hs99999908_ml)—used for K562/suspension cell lines • PPIA: VIC-PL, ThermoFisher 4326316E (Assay: Hs99999904_ml)—used for A673/adherent cell lines
# as §2, §3
# The cells were then gently washed with 50 uL-100 uL cold PBS before proceeding to addition of lysis buffer. 30 uL-50 uL of room temperature lysis buffer with DNAse I (and optionally RNAsin) was added to each well. Cells were shaken/mixed thoroughly at room temperature for 5-10 minutes for lysis to take place and then 3 uL-5 uL of room temperature stop solution was added and wells were shaken/mixed again. After 2-5 minutes, the cell lysate plate was transferred to ice for RT-qPCR reaction setup. The lysates could also be frozen at −80° C. for later use.
# In some cases, a direct lysis buffer was used. An appropriate volume of 3X lysis buffer (10 mM Tris, 150 mM NaCl, 1.5%-2.5% Igepal and 0.1-1 U/uL RNAsin, pH 7.4) was directly added to either K562 or A673 cells in media and mixed by pipetting 3 times. The plates were then incubated at room temperature with shaking/rocking for 20-50 minutes to allow for lysis to take place. After this time, the cell lysate plate was transferred to ice to set up for the RT-qPCR reactions. The lysates could also be frozen at −80° C. for later use. […]
IC50 (SMN2 CJ mRNA),IC50 (HTT CJ mRNA),IC50 (Target C CJ mRNA),IC50 (HTT mRNA),SMILES,AC50 (HTT mRNA)
100 to 1000 nM,1000 to 10000 nM,> 10000 nM,1000 to 10000 nM,"Cc1cn2nc(-c3cc4cn([C@H]5CCNC[C@@H]5F)nc4s3)cc(C)c2n1 (mixture of isomers) [Compound 212, 5-(2,8-dimethylimidazo[1,2-b]pyridazin-6-yl)-2-((1:1 mixture of 3S,4S and 3R,4R)-3-fluoropiperidin-4-yl)-2H-thieno[2,3-c]pyrazole]",1000 to 10000 nM
< 100 nM,< 100 nM,100 to 1000 nM,< 100 nM,Cn1cc2cc(-c3cc4cn([C@H]5CCNC[C@H]5F)nc4s3)cc(F)c2n1 (stereo in doubt) [Compound 182],100 to 1000 nM
–,–,> 10000 nM,–,"Cn1cc2cc(-n3cc4sc(C5CCNCC5)cc4n3)ccc2n1 [Compound 100, 2-methyl-5-[5-(piperidin-4-yl)thieno[3,2-c]pyrazol-2-yl]indazole]",1000 to 10000 nM
< 100 nM,< 100 nM,< 100 nM,< 100 nM,"Cc1cn2nc(-n3cc4sc(C5CCNCC5)cc4n3)cc(C)c2n1 [Compound 101, 4-(2-[2,8-dimethylimidazo[1,2-b]pyridazin-6-yl]thieno[3,2-c]pyrazol-5-yl)piperidine]",100 to 1000 nM
< 100 nM,100 to 1000 nM,100 to 1000 nM,100 to 1000 nM,"Cn1cc2cc(-c3cn4nc(C5CCNCC5)nc4s3)cc(F)c2n1 [Compound 102, 7-fluoro-2-methyl-5-[2-(piperidin-4-yl)-[1,2,4]triazolo[3,2-b][1,3]thiazol-5-yl]indazole]",100 to 1000 nM
> 10000 nM,> 10000 nM,> 10000 nM,> 10000 nM,"Cn1cc2cc(-c3nc4sc(C5CCNCC5)cn4n3)cc(F)c2n1 [Compound 103, 7-fluoro-2-methyl-5-[5-(piperidin-4-yl)-[1,2,4]triazolo[3,2-b][1,3]thiazol-2-yl]indazole]",> 10000 nM
< 100 nM,< 100 nM,100 to 1000 nM,< 100 nM,"Cn1cc2cc(-n3cc4cc(C5CCNCC5)sc4n3)cc(F)c2n1 [Compound 104, 7-fluoro-2-methyl-5-[5-(piperidin-4-yl)thieno[2,3-c]pyrazol-2-yl] indazole]",100 to 1000 nM
100 to 1000 nM,100 to 1000 nM,1000 to 10000 nM,100 to 1000 nM,"Cn1cc2cc(-n3cc4sc(C5CCNCC5)cc4n3)cc(F)c2n1 [Compound 105, 7-fluoro-2-methyl-5-[5-(piperidin-4-yl)thieno[3,2-c]pyrazol-2-yl]indazole]",100 to 1000 nM
< 100 nM,< 100 nM,< 100 nM,< 100 nM,"Cn1cc2cc(-c3nc4sc(C5CCNCC5)cc4s3)cc(F)c2n1 [Compound 106, 7-fluoro-2-methyl-5-[5-(piperidin-4-yl)thieno[2,3-d][1,3]thiazol-2-yl]indazole]",< 100 nM
< 100 nM,100 to 1000 nM,–,100 to 1000 nM,"Cc1cn2nc(-n3cc4cc(C5CCNCC5)sc4n3)cc(C)c2n1 [Compound 110, 4-(2-[2,8-dimethylimidazo[1,2-b]pyridazin-6-yl]thieno[2,3-c]pyrazol-5-yl) piperidine]",100 to 1000 nM
< 100 nM,< 100 nM,< 100 nM,< 100 nM,"Cc1cn2nc(-c3nc4sc(C5CCNCC5)cc4s3)cc(C)c2n1 [Compound 112, 4-(2-[2,8-dimethylimidazo[1,2-b]pyridazin-6-yl]thieno[2,3-d][1,3]thiazol-5-yl)piperidine]",< 100 nM
< 100 nM,100 to 1000 nM,–,100 to 1000 nM,"Cn1cc2cc(-c3cc4nn(C5CCNCC5)cc4s3)cc(F)c2n1 [Compound 121, 7-fluoro-2-methyl-5-[2-(piperidin-4-yl)thieno[3,2-c]pyrazol-5-yl]indazole]",100 to 1000 nM
< 100 nM,< 100 nM,< 100 nM,< 100 nM,"Cn1cc2cc(-c3cc4cn(C5CCNCC5)nc4s3)cc(F)c2n1 [Compound 122, 7-fluoro-2-methyl-5-[2-(piperidin-4-yl)thieno[2,3-c]pyrazol-5-yl]indazole]",100 to 1000 nM
< 100 nM,100 to 1000 nM,100 to 1000 nM,100 to 1000 nM,"Cn1cc2cc(-c3cc4sc(C5CCNCC5)nc4s3)cc(F)c2n1 [Compound 124, 7-fluoro-2-methyl-5-[2-(piperidin-4-yl)thieno[2,3-d][1,3]thiazol-5-yl]indazole]",< 100 nM
100 to 1000 nM,100 to 1000 nM,1000 to 10000 nM,100 to 1000 nM,"Cc1cn2nc(-c3cc4sc(C5CCNCC5)nc4s3)cc(C)c2n1 [Compound 125, 4-(5-[2,8-dimethylimidazo[1,2-b]pyridazin-6-yl]thieno [2,3-d][1,3]thiazol-2-yl) piperidine]",100 to 1000 nM
100 to 1000 nM,100 to 1000 nM,1000 to 10000 nM,100 to 1000 nM,"Cc1nc2c(F)cc(-c3nc4sc(C5CCNCC5)cc4s3)cc2s1 [Compound 126, 4-fluoro-2-methyl-6-[5-(piperidin-4-yl)thieno[2,3-d][1,3]thiazol-2-yl]-1,3-benzothiazole hydrochloride]",100 to 1000 nM
1000 to 10000 nM,1000 to 10000 nM,1000 to 10000 nM,1000 to 10000 nM,"Cn1cc2ccc(-c3nc4sc(C5CCNCC5)cc4s3)cc2n1 [Compound 127, 2-methyl-6-[5-(piperidin-4-yl)thieno [2,3-d][1,3]thiazol-2-yl]indazole hydrochloride]",1000 to 10000 nM
–,100 to 1000 nM,–,100 to 1000 nM,Cn1cc2cc(-c3cc4cn([C@H]5CCNC[C@@H]5F)nc4s3)cc(F)c2n1 [Compound 190],100 to 1000 nM
